Laboratory results taken from patent US20230310654A1 (priority 2020, published 2023).

Assays:
male cynomolgus monkeys = settings: cynomolgus monkey, in vivo
CBE mouse model = settings: in vivo
juvenile mice = settings: mouse, in vivo

| Compound | effect on safety or biodistribution of PR001A (male cynomolgus monkeys) | adverse effects in peripheral tissues (CBE mouse model) | inhibition of PR001A-encoded and endogenous GCase activity by CBE treatment (CBE mouse model) | reduction of effective GCase activity in tissues following treatment with CBE (CBE mouse model) | lethality (mice died by P27) (juvenile mice) | body weight (juvenile mice; ip) |
| --- | --- | --- | --- | --- | --- | --- |
| CO[C@H]1C[C@@H]2CC[C@@H](C)[C@@](O)(O2)C(=O)C(=O)N2CCCC[C@H]2C(=O)O[C@H]([C@H](C)C[C@@H]2CC[C@@H](O)[C@H](OC)C2)CC(=O)[C@H](C)/C=C(\C)[C@@H](O)[C@@H](OC)C(=O)[C@H](C)C[C@H](C)/C=C/C=C/C=C/1C [rapamycin] | did not appear to have any effect |  |  |  |  |  |
| conduritol-β-epoxide [CBE] |  | No adverse effects | approximately 50% | up to 60% | 5 of the 8 | failure to gain weight |
